Where two headings read alike, the source gives them in different places.
How the values were obtained:
Kv1.2 potassium channel = assay: Tyrosine phosphorylation of Kv1.2 in transfected 293 cells; type: cell-based, human; details: 293 cells co-expressing Kv1.2-HA and PYK2; PMA 1.6 μM, calcium ionophore 6 μM
PYK2 and Fak = assay: Tyrosine phosphorylation of PYK2 and Fak in transfected 293 cells; type: cell-based, human; details: PMA 1.6 μM, calcium ionophore 6 μM
Procedure: We examined the possibility whether PYK2 can tyrosine phosphorylate the Kv1.2 channel and regulate its function. In order to test this possibility, we expressed in 293 cells the Kv1.2 protein, Kv1.2 together with PYK2, and as a control Kv1.2 with a kinase negative PYK2 mutant (PKN) or with the protein tyrosine kinase Fak. The cells were grown for 24 hours in medium containing 0.2% serum and then stimulated with PMA(1.6 μM), calcium ionophore (6 μM), or left unstimulated.
Immunoblotting analysis with phosphotyrosine anti-bodies following immunoprecipitation of PYK2, PKN and Fak by specific antibodies. […] The level of expression of the kinase negative mutant of PYK2 (PKN) was similar to the expression of wild type PYK2 or FAK. […] We next analyzed the tyrosine phosphorylation of Kv1.2 channel in each cell line.
Embryonic human kidney 293 cells were transiently transfected with different combinations of mammalian expression vectors which direct the synthesis of Kv1.2-HA, PYK2, a kinase negative PYK2 (PKN) or the protein tyrosine kinase Fak. […]
Tyrosine phosphorylation of each protein was analysed following immunoprecipitation and immunoblotting with anti-phosphotyrosine antibodies. The expression of each protein was determined by immunoblot analysis of total cell lysates from each transfection with anti-PYK2, anti-HA or anti-Fak antibodies.

PYK2 = assay: Tyrosine phosphorylation of PYK2 in PC12 cells (immunoprecipitation, anti-phosphotyrosine immunoblot); type: cell-based, rat; details: for tyrosine phosphorylation of PYK2: quiescent PC12 cells, carbachol 1 mM, KCl 75 mM, A23187 6 μM 15 min, bradykinin 1 μM, PMA 1.6 μM
PYK-2 = assay: Tyrosine phosphorylation of PYK-2 in NIH3T3 cells overexpressing PYK-2; type: cell-based; details: NIH3T3 cells overexpressing PYK-2 / PYK-2-HA; TPA 6 μM, 15 min, 37° C.
Source text: The PYK-2 cDNA cloned in pLSV was cotransfected with pSV2neo into PC12 cells and NIH3T3 in order to establish stable cell lines. G418 resistant colonies were screened by immunoprecipitating and immunoblotting.
NIH3T3 cell lines were established that overexpress the PYK-2 and the PYK-2-HA protein. […] The level of phosphorylation is not so high.

Shc = assay: Tyrosine phosphorylation of Shc in PC12 cells; type: cell-based, rat; details: for tyrosine phosphorylation of Shc induced by agonist: DMPP 100 μM, muscarine 1 mM, NGF 100 ng/ml
Procedure: Tyrosine phosphorylation of Shc in response to bradykinin, carbachol, PMA and other stimuli was also measured. Quiescent PC12 cells were stimulated for 5 min at 37° C. with bradykinin (1 μM), carbachol (1 mM), KCl (75 mM), PMA (1.6 μM), NGF(100 ng/ml), or left unstimulated (−). The cells were also stimulated with carbachol (1 mM) or potassium chloride (75 mM) in the presence of 3 mM EGTA. Stimulations with DMPP (100 μM) or muscarine (1 mM) were preformed under the same conditions. […] The Shc proteins were immunoprecipitated with anti-Shc antibodies, the immunoprecipitates were resolved by SDS-PAGE (8%), transferred to nitrocellulose and immunoblotted with anti-phosphotyrosine antibodies.

Kv1.2 channel [1] = details: oocytes, after 20 min incubation; as previously shown (Huang et al.); cited from earlier work
Kv1.2 channel [2] = assay: Kv1.2 currents in Xenopus oocytes (two microelectrode voltage clamp); type: cell-based, Xenopus laevis
Procedure: In vitro capped RNA transcripts of Kv1.2, PYK2 and PKN were synthesized from linearized plasmids DNA templates utilizing the […] mMACHINE kit (Ambion), following the supplier's protocols. The products of the transcription reaction (cRNAs) were diluted in RNAse-free water and stored at −70° C. Expression of the RNAs was done by injection of 50nl of RNA into defolliculated stage V and VI oocytes from Xenopus laevis (Iverson et al., J. Neurosc. 10, 2903-2916, 1990). The injected oocytes were incubated for 2-3 days at 20° C. in L15 solution (1:2 dilution of Gibco's Leibovitz L15 medum in H20, with 50 U/ml nystatin, 0.1 mg/ml gentamycin, 30 mM HEPES buffer, pH 7.3-7.4, filtered through a 0.45 mm membrane) Electrophysiological Recording and analysis. Ionic currents were recorded with a two microelectrode voltage-clamp as described (Iverson et al., supra). The current were low-pass filtered KHz using an 8-pole Bessel filter and stored in a 80286 microcomputer using the pclamp acquisition system (Axon Instruments). The data was analyzed with the clamp fit pro-rams of the pCIamp system (Axon Instruments). All recording were performed at room temperature ([…]). The recording chamber was continually perfused with recording solution. To avoid contamination of the oocyte by Ca+^2-activated Cl^− currents low Cl^− recording solution was used (96 mM Na+, glutamate, 2 mM K^+ glutamate, 0.5 mM CaCl2, 5 mM MgCl2, 5 mM HEPES buffer). The K+ currents were elicited in depolarizinc, steps from −100 to +40 mv in 10 mV increments every 15 seconds.
Kv1.2 currents from oocytes microinjected with either Kv1.2 mRNA, Kv1.2 and PYK2 mRNAs, or Kv1.2 and a kinase negative mutant of PYK2 mRNAs (PKN). Currents were elicited in response to depolarizing steps from −100 to +30 mV increments from a holding potential of −110 mV. Representative traces of Kv1.2 channels before and after bath application of 100 nM PMA at the annotated time (8 and 20 minutes) in the same cell.
Suppression of Kv1.2 currents in response to PMA is blocked by a kinase negative PYK2 mutant (PKN). Inhibition of Kv1.2 currents in an oocyte microinjected with Kv1.2 mRNA before and 25 minutes after treatment with PMA at 50 nM or 100 nM concentration. Recordings from an oocyte expression Kv1.2 and PYK2 or Kv1.2 and a kinase negative mutant of PYK2 under the same conditions as described above. The same protocol was utilized in both experiments.
We asked whether stimulation of PYK2 can suppress Kv1.2 currents. […] Stage V oocytes were microinjected either with Kv1.2 transcripts or with Kv1.2 together with PYK2 or PKN mRNAs. […] The expression of Kv1.2, PYK2 and PKN in the frog oocytes was confirmed by immunoblot analysis with anti-HA or anti-PYK2 antibodies.

[3] = PC12 cells, 37° C., TPA 1.6 μM 15 min, bradykinin 1 μM 1 min, A23187 2 μM 15 min
[4] = PC12 cells, pertussis toxin 100 ng/ml for 20 hours

CNc1ccc2oc(C[C@H]3O[C@@]4(CC[C@H]3C)O[C@H]([C@H](C)C(=O)c3ccc[nH]3)[C@H](C)C[C@H]4C)nc2c1C(=O)O [calcium ionophore A23187]
tyrosine phosphorylation of Kv1.2 (Kv1.2 potassium channel): enhanced
tyrosine phosphorylation of PYK2 and Fak (PYK2 and Fak): induced a weaker response
tyrosine phosphorylation of PYK-2 in response to the stimulus alone (PYK2; [3]): undergoes tyrosine phosphorylation
tyrosine phosphorylation of PYK2 (PYK2; 37° C.): phosphorylated on tyrosine residues

PDGF
tyrosine phosphorylation of PYK-2 (PYK-2): undergoes tyrosine phosphorylation

Cholera toxin
effect on the TPA / bradykinin PYK-2 phosphorylation response in combination (PYK2): gave higher signal in combination with TPA and bradykinin
tyrosine phosphorylation of PYK-2 in response to the stimulus alone (PYK2): didn't cause phosphorylation of PYK-2 alone

CNC1(C)C2CCC(C2)C1(C)C (centres unmarked) [mecamylamine]
effect of antagonist on carbachol-induced tyrosine phosphorylation of Shc (Shc): blocked the effect of carbachol

C[N+]1(C)CCN(c2ccccc2)CC1.[I-] [DMPP, 1,1-dimethyl-4-phenyl piperazinium iodide]
tyrosine phosphorylation of Shc induced by agonist (Shc): induced phosphorylation of Shc

aFGF: growth factor used to stimulate NIH3T3 cells
tyrosine phosphorylation of PYK-2 (PYK-2): undergoes tyrosine phosphorylation

[Cl-].[K+] [KCl, potassium chloride]
agonist-induced PYK2 tyrosine phosphorylation on omission of extracellular calcium (PYK2; PC12 cells, no extracellular calcium or EGTA present): completely abolished PYK2 tyrosine phosphorylation
tyrosine phosphorylation of PYK2 (PYK2; 37° C.): induces rapid tyrosine phosphorylation of PYK2

C[N+](C)(C)CCOC(N)=O [carbachol]
time of maximum tyrosine phosphorylation of Shc (Shc; 1 mM carbachol time course): one
dependence of agonist-induced tyrosine phosphorylation of Shc on extracellular calcium (Shc; 3 mM EGTA): dependent on the presence of extracellular calcium
time after applying the agonist at which PYK2 became phosphorylated on tyrosine (PYK2; PC12 cells, carbachol): 5 s
tyrosine phosphorylation of PYK2 (PYK2; 37° C.): induces strong, tyrosine phosphorylation of PYK2

pertussis toxin
effect on the TPA / bradykinin PYK-2 phosphorylation response in combination (PYK2): induced the response of TPA and bradykinin
tyrosine phosphorylation of PYK-2 in response to the stimulus alone (PYK2; [3]): didn't cause any response alone
effect of pretreatment on LPA-induced tyrosine phosphorylation of PYK2 (PYK2; [4]): significantly inhibited
effect of pretreatment on bradykinin or PMA induced activation of PYK2 (PYK2; [4]): not affected

O=C(O)CN(CCOCCOCCN(CC(=O)O)CC(=O)O)CC(=O)O [EGTA, ethyleneglycol-bis (β-aminoethyl ether)-N,N,N′N′-tetraacetic acid]
effect on carbachol-induced tyrosine phosphorylation of PYK2 (PYK2; PC12 cells, EGTA 3 mM (elimination of extracellular calcium)): completely blocked agonist induced tyrosine phosphorylation of PYK2
effect on LPA-induced PYK2 phosphorylation (PYK2; PC12 cells, medium containing 3 mM EGTA): did not affect

CCCCCCCCCCCCCC(=O)O[C@@H]1[C@@H](C)[C@@]2(O)[C@@H](C=C(CO)C[C@]3(O)C(=O)C(C)=C[C@@H]23)[C@@H]2C(C)(C)[C@]12OC(C)=O [PMA, phorbol 12-myristate 13-acetate]
inhibition of Kv1.2 currents (Kv1.2 channel [1]): 80-90%
tyrosine phosphorylation of Kv1.2 (Kv1.2 potassium channel): enhanced
inhibition of outward current (Kv1.2 channel [2]; oocytes coexpressing Kv1.2 and PYK2, 8 min after 100 nM PMA): 95%
inhibition of outward current (Kv1.2 channel [2]; oocytes expressing Kv1.2 alone, 8 min after 100 nM PMA): 25%
effect on Kv1.2 currents (Kv1.2 channel [2]; oocytes treated with PMA): caused inhibition of Kv1.2 currents
effect on kinetics and voltage dependence of remaining Kv1.2 currents (Kv1.2 channel [2]; oocytes, absence or presence of PYK2 expression): did not result in changes in both the kinetics or voltage dependence of the remaining currents
tyrosine phosphorylation of PYK2 and Fak (PYK2 and Fak): induced tyrosine phosphorylation
agonist-induced PYK2 tyrosine phosphorylation after prolonged PMA treatment (PKC down-regulation) (PYK2; PC12 cells pretreated with 100 nM PMA for 12 h): completely abolished the effect of PMA
tyrosine phosphorylation of PYK-2 in response to the stimulus alone (PYK2; [3]): undergoes tyrosine phosphorylation
increase in the phosphorylation state of PYK2 relative to unstimulated cells (PYK2; PC12 cells, LPA 2.5 mM, bradykinin 1 mM 3 min, PMA 1 mM 10 min, 37° C.): 12 fold
tyrosine phosphorylation of PYK2 (PYK2; 37° C.): induced tyrosine phosphorylation of PYK2

C[C@@H]1O[C@H](C[N+](C)(C)C)C[C@H]1O [muscarine]
tyrosine phosphorylation of Shc induced by agonist (Shc): had no effect

CN1[C@@H]2CC[C@H]1C[C@@H](OC(=O)C(CO)c1ccccc1)C2 (some centres unmarked) [atropine]
effect of antagonist on carbachol-induced tyrosine phosphorylation of Shc (Shc): had no effect

EGF: growth factor used to stimulate NIH3T3 cells
tyrosine phosphorylation of PYK-2 (PYK-2): undergoes tyrosine phosphorylation

NGF: nerve growth factor
tyrosine phosphorylation of Shc induced by agonist (Shc): induced persistent stimulation of Shc phosphorylation
duration of stimulation of Shc phosphorylation after addition (Shc; NGF): five
